Reference: US10085998B2, “Salts of potassium ATP channel openers and uses thereof” (Essentialis, Inc., priority 2006, dated 2018)
≈ marks a conversion by molar mass, not a printed value.

Tests used:
[1] = Slurry studies (inter-conversion of the solid form); settings: room temperature, no light, water, isopropyl alcohol, dichloromethane and toluene, 14 days
Experimental: Slurry experiments were performed on each form to determine propensity for conversion and to see if a unique form could be generated.

[2] = Moisture sorption analysis; format: physicochemical; settings: for Hysteresis upon desorption / hydrate formation: desorption scan
Experimental: Moisture Sorption Analysis was performed with a Hiden IGAsorp Moisture Sorption Instrument. Samples were first dried at 0% relative humidity at 25° C. until an equilibrium weight was reached, or for a maximum of 4 hours. Samples were then subjected to an isothermal (25° C.) scan from 10-90% relative humidity in steps of 10%. The samples were allowed to equilibrate to an asymptotic weight at each point for a maximum of 4 hours. Following absorption, a desorption scan from 85% relative humidity (at 25° C.) was run in steps of −10%, again allowing a maximum of 4 hours for the samples to equilibrate. The resulting samples after desorption were dried at 80° C. for two hours and analyzed by XRPD.

[3] = Form conversion and degradation under thermal stress; settings: 60° C., closed, protected from light, 7 and 14 days
Experimental: Studies were also conducted to evaluate the likelihood for conversion and degradation under thermal stress.

[4] = Additional solubility studies in 100 mM phosphate buffer (HPLC); format: physicochemical; settings: pH 7.3, aqueous buffer, thermodynamic from solid, pH 7.30, pH after 18 h slurry 7.31, ambient temperature
Experimental: Each determination was carried out in duplicate, slurrying each sample in a 100 mM phosphate buffer solution, pH 7.00. […] After this time all samples were centrifuged, and the supernatant was diluted with mobile phase (MeCN/Water.).

SMILES: CC1=NS(=O)(=O)c2cc(Cl)ccc2N1 [free form diazoxide, 7-chloro-3-methyl-2H-1,2,4-benzothiadiazine 1, 1 dioxide, reference compound]
- Slurry study: conversion of solid form [1]: did not convert to alternate crystal forms
- Hysteresis upon desorption / hydrate formation ([2]; 25° C.): does not form a stable hydrate
- Hysteresis upon desorption / hydrate formation ([2]; 25° C., listed as Free form): no hysteresis
- Moisture sorption: hygroscopicity ([2]; 25° C., relative humidity scan): non-hygroscopic
- Water absorbed at 60% RH ([2]; 25° C., 60% RH): approximately 0.04 wt %
- Water absorbed at 90% RH ([2]; 25° C., 90% RH): ~0.20 wt %
- XRPD pattern following the moisture sorption/desorption analysis ([2]; after moisture sorption experiment): same crystalline form
- Form conversion and degradation under thermal stress (XRPD, DSC) [3]: no conversion or degradation
- solubility at 18 h [4]: 70 µg/mL (≈ 303 µM)
